In the supplement of paper PMC10307832:

What was measured:
Assay in all cases: relative viability (nuclei count vs DMSO), 5 days (fraction); higher = more cells survive
A-427 = tested on: A-427
Method in brief: (§1)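 Medians of duplicate plates are given as relative viability. That measure is the nuclei count in treated wells divided by the count in vehicle wells. Counts were taken on 4× images of lung cancer cell lines in 1536-well plates, 5 days after pin-tool dosing the day after seeding with one drug alone or a fixed anchor-drug dose plus five library-drug doses (not always all listed) in √10 steps.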

COR-L 105 = tested on: COR-L 105
Method in brief: as §1

EKVX = tested on: EKVX
Method in brief: as §1

EMC-BAC-2 = tested on: EMC-BAC-2
Method in brief: as §1

H3255 = tested on: H3255
Method in brief: as §1

HCC-366 = tested on: HCC-366
Method in brief: as §1

LK-2 = tested on: LK-2
Method in brief: as §1

LOU-NH91 = tested on: LOU-NH91
Method in brief: as §1

NCI-H1563 = tested on: NCI-H1563
Method in brief: as §1

NCI-H1666 = tested on: NCI-H1666
Method in brief: as §1

NCI-H1734 = tested on: NCI-H1734
Method in brief: as §1

NCI-H1755 = tested on: NCI-H1755
Method in brief: as §1

NCI-H1975 = tested on: NCI-H1975
Method in brief: as §1

NCI-H23 = tested on: NCI-H23
Method in brief: as §1

NCI-H441 = tested on: NCI-H441
Method in brief: as §1

NCI-H520 = tested on: NCI-H520
Method in brief: as §1

NCI-H596 = tested on: NCI-H596
Method in brief: as §1

PC-3 [JPC-3] = tested on: PC-3 [JPC-3]
Method in brief: as §1

SK-MES-1 = tested on: SK-MES-1
Method in brief: as §1

SMILES: CC(=O)O[C@@]12CO[C@@H]1C[C@H](O)[C@@]1(C)C(=O)[C@H](O)C3=C(C)[C@@H](OC(=O)[C@H](O)[C@@H](NC(=O)OC(C)(C)C)c4ccccc4)C[C@@](O)([C@@H](OC(=O)c4ccccc4)[C@H]21)C3(C)C [Docetaxel] + C[C@]1(O)C[C@@H](c2nc(-c3ccc4ccc(-c5ccccc5)nc4c3)c3c(N)nccn32)C1 [Linsitinib] (partner 1 µM)
- relative viability (A-427; first compound 0.0002 µM): 1.09
- relative viability (A-427; first compound 0.000632 µM): 1.12
- relative viability (A-427; first compound 0.002 µM): 1.02
- relative viability (A-427; first compound 0.02 µM): 0.227
- relative viability (COR-L 105; first compound 0.0002 µM): 0.899
- relative viability (COR-L 105; first compound 0.000632 µM): 0.757
- relative viability (COR-L 105; first compound 0.002 µM): 0.395
- relative viability (COR-L 105; first compound 0.006325 µM): 0.362
- relative viability (COR-L 105; first compound 0.02 µM): 0.288
- relative viability (EKVX; first compound 0.0002 µM): 0.899
- relative viability (EKVX; first compound 0.000632 µM): 0.804
- relative viability (EKVX; first compound 0.002 µM): 0.427
- relative viability (EKVX; first compound 0.006325 µM): 0.23
- relative viability (EKVX; first compound 0.02 µM): 0.115
- relative viability (EMC-BAC-2; first compound 0.0002 µM): 0.799
- relative viability (EMC-BAC-2; first compound 0.000632 µM): 0.665
- relative viability (EMC-BAC-2; first compound 0.002 µM): 0.463
- relative viability (EMC-BAC-2; first compound 0.006325 µM): 0.31
- relative viability (EMC-BAC-2; first compound 0.02 µM): 0.207
- relative viability (H3255; first compound 0.0002 µM): 0.824
- relative viability (H3255; first compound 0.000632 µM): 0.866
- relative viability (H3255; first compound 0.002 µM): 0.516
- relative viability (H3255; first compound 0.006325 µM): 0.223
- relative viability (H3255; first compound 0.02 µM): 0.209
- relative viability (HCC-366; first compound 0.0002 µM): 0.423
- relative viability (HCC-366; first compound 0.000632 µM): 0.545
- relative viability (HCC-366; first compound 0.002 µM): 0.0386
- relative viability (HCC-366; first compound 0.006325 µM): 0.012
- relative viability (HCC-366; first compound 0.02 µM): 0.0114
- relative viability (LK-2; first compound 0.0002 µM): 0.534
- relative viability (LK-2; first compound 0.000632 µM): 0.445
- relative viability (LK-2; first compound 0.002 µM): 0.154
- relative viability (LK-2; first compound 0.006325 µM): 0.151
- relative viability (LK-2; first compound 0.02 µM): 0.156
- relative viability (LOU-NH91; first compound 0.0002 µM): 0.967
- relative viability (LOU-NH91; first compound 0.000632 µM): 0.8
- relative viability (LOU-NH91; first compound 0.002 µM): 0.586
- relative viability (LOU-NH91; first compound 0.006325 µM): 0.434
- relative viability (LOU-NH91; first compound 0.02 µM): 0.324
- relative viability (NCI-H1563; first compound 0.0002 µM): 1.19
- relative viability (NCI-H1563; first compound 0.000632 µM): 1.15
- relative viability (NCI-H1563; first compound 0.002 µM): 1.05
- relative viability (NCI-H1563; first compound 0.006325 µM): 0.988
- relative viability (NCI-H1563; first compound 0.02 µM): 0.617
- relative viability (NCI-H1666; first compound 0.0002 µM): 0.712
- relative viability (NCI-H1666; first compound 0.000632 µM): 0.404
- relative viability (NCI-H1666; first compound 0.002 µM): 0.383
- relative viability (NCI-H1666; first compound 0.006325 µM): 0.28
- relative viability (NCI-H1666; first compound 0.02 µM): 0.211
- relative viability (NCI-H1734; first compound 0.0002 µM): 0.918
- relative viability (NCI-H1734; first compound 0.000632 µM): 0.825
- relative viability (NCI-H1734; first compound 0.002 µM): 0.516
- relative viability (NCI-H1734; first compound 0.006325 µM): 0.373
- relative viability (NCI-H1734; first compound 0.02 µM): 0.235
- relative viability (NCI-H1755; first compound 0.0002 µM): 0.948
- relative viability (NCI-H1755; first compound 0.000632 µM): 0.971
- relative viability (NCI-H1755; first compound 0.002 µM): 0.48
- relative viability (NCI-H1755; first compound 0.006325 µM): 0.384
- relative viability (NCI-H1755; first compound 0.02 µM): 0.302
- relative viability (NCI-H1975; first compound 0.0002 µM): 0.861
- relative viability (NCI-H1975; first compound 0.000632 µM): 0.962
- relative viability (NCI-H1975; first compound 0.002 µM): 0.309
- relative viability (NCI-H1975; first compound 0.006325 µM): 0.189
- relative viability (NCI-H1975; first compound 0.02 µM): 0.161
- relative viability (NCI-H23; first compound 0.0002 µM): 0.579
- relative viability (NCI-H23; first compound 0.000632 µM): 0.572
- relative viability (NCI-H23; first compound 0.002 µM): 0.465
- relative viability (NCI-H23; first compound 0.006325 µM): 0.22
- relative viability (NCI-H23; first compound 0.02 µM): 0.126
- relative viability (NCI-H441; first compound 0.0002 µM): 0.405
- relative viability (NCI-H441; first compound 0.000632 µM): 0.27
- relative viability (NCI-H441; first compound 0.002 µM): 0.172
- relative viability (NCI-H441; first compound 0.006325 µM): 0.224
- relative viability (NCI-H441; first compound 0.02 µM): 0.117
- relative viability (NCI-H520; first compound 0.0002 µM): 1.06
- relative viability (NCI-H520; first compound 0.000632 µM): 0.887
- relative viability (NCI-H520; first compound 0.002 µM): 0.277
- relative viability (NCI-H520; first compound 0.006325 µM): 0.182
- relative viability (NCI-H520; first compound 0.02 µM): 0.133
- relative viability (NCI-H596; first compound 0.0002 µM): 1.02
- relative viability (NCI-H596; first compound 0.000632 µM): 0.953
- relative viability (NCI-H596; first compound 0.002 µM): 0.754
- relative viability (NCI-H596; first compound 0.006325 µM): 0.761
- relative viability (NCI-H596; first compound 0.02 µM): 0.437
- relative viability (PC-3 [JPC-3]; first compound 0.0002 µM): 0.983
- relative viability (PC-3 [JPC-3]; first compound 0.000632 µM): 0.96
- relative viability (PC-3 [JPC-3]; first compound 0.002 µM): 0.863
- relative viability (PC-3 [JPC-3]; first compound 0.006325 µM): 0.37
- relative viability (PC-3 [JPC-3]; first compound 0.02 µM): 0.184
- relative viability (SK-MES-1; first compound 0.0002 µM): 1.05
- relative viability (SK-MES-1; first compound 0.000632 µM): 0.967
- relative viability (SK-MES-1; first compound 0.002 µM): 0.634
- relative viability (SK-MES-1; first compound 0.006325 µM): 0.26
- relative viability (SK-MES-1; first compound 0.02 µM): 0.177
